In US9561231B2 (AbbVie Inc., priority 2012, dated 2017) one finds EC50 and Ki data, which are given here for 24 compounds.

Usually Ki stands for the equilibrium dissociation constant of an inhibitor or competing ligand from its target.

Assay [1] relates to breast cancer cell line MX-1. The experiment in a line: MX-1 cell line proliferation assay (3-day). The assay is classed as cell-based. The conditions noted are these: Homo sapiens, MX1, MX-1 cells, Cell Titer Glo, read-out: Cellular proliferation: EC50. The procedure, abridged:
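EC50 derived by sigmoidal fitting of Cell Titer Glo signal relative to DMSO controls. Compound, 3 μM down to 0.0001 μM final in 3-fold steps, was added to adhered MX-1 cells (5000/well, RPMI + 10% FBS) for a 3-day incubation at 37° C.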
(Cellular ATP, detected with luciferase, serves as a proxy for viable cell number.)

The target in assay [2] is T1, second (BD2: amino acids E352-E168) bromodomain of BRD4 (Homo sapiens, UniProt O60885).
T1 construct: protocol
The experiment in a line: TR-FRET bromodomain binding assay, BRD4 BD2. As to conditions: Ki calculated from IC50, probe Kd and probe concentration, read-out: TR-FRET Binding Ki: BRD4 (BDII_E352-M457). In outline:
(§1)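 Values are Ki: IC50s from TR-FRET competition with an Alexa647-labeled BET-inhibitor probe were converted using probe Kd and probe concentration. Purified His-tagged bromodomain; pH 6.0 sodium phosphate buffer.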

For assay [3], the target named is T2, first (BD1: amino acids K57-E168) bromodomain of BRD4 (Homo sapiens, UniProt O60885).
T2 construct: His-tagged first (BD1: amino acids K57-E168)
The assay can be described thus: TR-FRET bromodomain binding assay, BRD4 BD1. The conditions noted are these: Ki calculated from IC50, probe Kd and probe concentration, read-out: TR-FRET Binding Ki: BRD4 (BDI_K57-E168). The procedure, abridged:
as §1

Setting [4] is: TR-FRET assay protocol (A-G, compound concentration range).
Setting [5] is: TR-FRET assay protocol (D, E or G) per compound.

Molecules are shown by their SMILES. Like-named read-outs stand apart in the source and are kept apart here.

For the compound `CCS(=O)(=O)Nc1ccc(Oc2ccc(C(N)=O)cc2)c(-c2cn(C)c(=O)cc2OCC(F)(F)F)c1` [Example 294, 4-{4-[(ethylsulfonyl)amino]-2-[1-methyl-6-oxo-4-(2,2,2-trifluoroethoxy)-1,6-dihydropyridin-3-yl]phenoxy}benzamide], the EC50 in assay [1] (72 h incubation) is over 3000 nM. Moreover, the Ki in assay [2] (setting [4]) was 8.3 nM; in assay [3] (setting [4]), 27.8 nM.

In the case of `CCNC(=O)Nc1ccc(Oc2ccccc2)c(-c2nn(C)c(=O)cc2OC)c1` [Example 30, 1-ethyl-3-[3-(4-methoxy-1-methyl-6-oxo-1,6-dihydropyridazin-3-yl)-4-phenoxyphenyl]urea], the EC50 in assay [1] (72 h incubation) turned out to be 12900 nM. Moreover, the Ki in assay [2] (setting [4]) was 1330 nM; in assay [3] (setting [4]) it was over 2380 nM.

With `Cn1cc(-c2ccccc2Oc2ccccc2)cc(Cl)c1=O` [Example 281, 3-chloro-1-methyl-5-(2-phenoxyphenyl)pyridin-2(1H)-one], the EC50 in assay [1] (72 h incubation) was 1650 nM. Further, the results for the Ki in assay [2] (setting [4]) and in assay [3] (setting [4]) were 509 nM and 150 nM, respectively.

Take `CCS(=O)(=O)Nc1ccc(Oc2ccc(F)cc2F)c(-c2cn(C)c(=O)cc2OC2CCNCC2)c1` [Example 322, N-{4-(2,4-difluorophenoxy)-3-[1-methyl-6-oxo-4-(piperidin-4-yloxy)-1,6-dihydropyridin-3-yl]phenyl}ethanesulfonamide]: the EC50 in assay [1] (72 h incubation) is over 3000 nM. For the same compound, the Ki was 90.9 nM in assay [2] (setting [4]) and 437 nM in assay [3] (setting [4]).

As to `Cn1cc(-c2cc(S(N)(=O)=O)ccc2Oc2ccccc2)ccc1=O` [Example 256, 3-(1-methyl-6-oxo-1,6-dihydropyridin-3-yl)-4-phenoxybenzenesulfonamide], the EC50 in assay [1] (72 h incubation) worked out at 1060 nM. The inhibition constant Ki in assay [2] (setting [4]) is 93.6 nM; in assay [3] (setting [4]), 219 nM.

As for `CCS(=O)(=O)Nc1ccc(Oc2ccc(F)cc2F)c(-c2cn(C)c(=O)cc2O[C@H]2CC[C@H](N(C)C)CC2)c1` [Example 321, N-[4-(2,4-difluorophenoxy)-3-(4-{[trans-4-(dimethylamino)cyclohexyl]oxy}-1-methyl-6-oxo-1,6-dihydropyridin-3-yl)phenyl]ethanesulfonamide], the EC50 in assay [1] (72 h incubation) came to 423 nM. For the same compound, the Ki in assay [2] (setting [4]) was 9.15 nM; in assay [3] (setting [4]), 50 nM.

As to `CNc1ccc(-c2cc(=O)n(C)nc2-c2ccccc2Oc2ccccc2)cc1` [Example 191, 2-methyl-5-[4-(methylamino)phenyl]-6-(2-phenoxyphenyl)pyridazin-3(2H)-one], the EC50 in assay [1] (72 h incubation) was found to be 1430 nM. Also, the Ki is 162 nM in assay [2] (setting [4]) and 324 nM in assay [3] (setting [4]).

On to `Cn1nc(-c2ccccc2Oc2ccccc2)c(-c2cccc(CC#N)c2)cc1=O` [Example 193, {3-[1-methyl-6-oxo-3-(2-phenoxyphenyl)-1,6-dihydropyridazin-4-yl]phenyl}acetonitrile], for which the EC50 in assay [1] (72 h incubation) was 1290 nM. Also, the values for the Ki in assay [2] (setting [4]) and in assay [3] (setting [4]) were 1010 nM and 167 nM, respectively.

With `CCS(=O)(=O)Nc1ccc(Oc2ccc(F)cc2F)c(-c2cn(C)c(=O)cc2-c2ccc(N3CCN(C)CC3)cc2)c1` [Example 330, N-[4-(2,4-difluorophenoxy)-3-{1-methyl-4-[4-(4-methylpiperazin-1-yl)phenyl]-6-oxo-1,6-dihydropyridin-3-yl}phenyl]ethanesulfonamide], in assay [1] (72 h incubation), the EC50 turned out to be 49.7 nM. The inhibition constant Ki in assay [2] (setting [4]) is 0.584 nM; in assay [3] (setting [4]) it was 1.96 nM.

For `Cn1nc(-c2ccccc2Oc2ccccc2)c(-c2ccc(CNS(C)(=O)=O)cc2)cc1=O` [Example 98, N-{4-[1-methyl-6-oxo-3-(2-phenoxyphenyl)-1,6-dihydropyridazin-4-yl]benzyl}methanesulfonamide], the EC50 in assay [1] (72 h incubation) was determined as 639 nM. Besides, the inhibition constant (Ki) is 71.2 nM in assay [2] (setting [4]) and 216 nM in assay [3] (setting [4]).

With `Cn1ccc(-c2cc(=O)n(C)nc2-c2ccccc2Oc2ccccc2)cc1=O` [Example 56, 2-methyl-5-(1-methyl-2-oxo-1,2-dihydropyridin-4-yl)-6-(2-phenoxyphenyl)pyridazin-3(2H)-one], the EC50 in assay [1] (72 h incubation) was 10400 nM. Also, the inhibitory constant (Ki) in assay [2] (setting [4]) is 341 nM; in assay [3] (setting [4]) it was 2900 nM.

As for `CCS(=O)(=O)Nc1ccc(Oc2ccc(F)cc2F)c(-c2cn(C)c(=O)cc2OCC2CCOC2)c1` (stereo not drawn) [Example 291, N-{4-(2,4-difluorophenoxy)-3-[1-methyl-6-oxo-4-(tetrahydrofuran-3-ylmethoxy)-1,6-dihydropyridin-3-yl]phenyl}ethanesulfonamide], the EC50 in assay [1] (72 h incubation) worked out at 112 nM. Moreover, the Ki in assay [2] (setting [4]) is 6.27 nM; in assay [3] (setting [4]) it was 16.2 nM.

Regarding `CCS(=O)(=O)Nc1ccc(Oc2ccc(F)cc2F)c(-c2cn(C)c(=O)cc2-c2ccoc2)c1` [Example 393, N-{4-(2,4-difluorophenoxy)-3-[4-(furan-3-yl)-1-methyl-6-oxo-1,6-dihydropyridin-3-yl]phenyl}ethanesulfonamide], the EC50 in assay [1] (72 hours with compound) was found to be 70.7 nM. The figures for the Ki in assay [2] (setting [5]) and in assay [3] (setting [5]) were 2.49 nM and 11.9 nM, respectively.

`CCOc1cc(=O)n(C)cc1-c1cc(NS(=O)(=O)CC)ccc1OCCC1CC1` [Example 383, N-[4-(2-cyclopropylethoxy)-3-(4-ethoxy-1-methyl-6-oxo-1,6-dihydropyridin-3-yl)phenyl]ethanesulfonamide]: the EC50 in assay [1] (72 hours with compound) was 83.6 nM. In addition, the values for the Ki in assay [2] (setting [5]) and in assay [3] (setting [5]) were 82.8 nM and 43.2 nM, respectively.

Turning to `CCOc1cc(=O)n(C)cc1-c1cc(NS(=O)(=O)CC)ccc1Oc1cccnc1` [Example 405, N-[3-(4-ethoxy-1-methyl-6-oxo-1,6-dihydropyridin-3-yl)-4-(pyridin-3-yloxy)phenyl]ethanesulfonamide], the EC50 in assay [1] (72 hours with compound) came out at 50.2 nM. For the same compound, the values for the Ki in assay [2] (setting [5]) and in assay [3] (setting [5]) were 4.99 nM and 36.3 nM, respectively.

On to `CCS(=O)(=O)Nc1ccc(Oc2ccc(F)cc2F)c(-c2cn(C)c(=O)cc2OC2CC3(C2)CN(C(=O)OC(C)(C)C)C3)c1` [Example 325, tert-butyl 6-[(5-{2-(2,4-difluorophenoxy)-5-[(ethylsulfonyl)amino]phenyl}-1-methyl-2-oxo-1,2-dihydropyridin-4-yl)oxy]-2-azaspiro[3.3]heptane-2-carboxylate], for which the EC50 in assay [1] (72 h incubation) turned out to be 101 nM. The inhibition constant Ki in assay [2] (setting [4]) was 21.4 nM; in assay [3] (setting [4]) it was 30.6 nM.

For `CCS(=O)(=O)Nc1ccc(OC2CCC(F)(F)CC2)c(-c2c[nH]c(=O)c(C)c2)c1` [Example 267, N-{4-[(4,4-difluorocyclohexyl)oxy]-3-(5-methyl-6-oxo-1,6-dihydropyridin-3-yl)phenyl}ethanesulfonamide], the EC50 in assay [1] (72 h incubation) was over 3000 nM. Also, the Ki in assay [2] (setting [4]) is 101 nM; in assay [3] (setting [4]), 47.8 nM.

As to `Cn1nc(-c2ccccc2Oc2ccccc2)c(C2=CCN(C(=O)OC(C)(C)C)CC2)cc1=O` [Example 81, tert-butyl 4-[1-methyl-6-oxo-3-(2-phenoxyphenyl)-1,6-dihydropyridazin-4-yl]-3,6-dihydropyridine-1(2H)-carboxylate], the EC50 in assay [1] (72 h incubation) is over 3000 nM. Moreover, the values for the Ki in assay [2] (setting [4]) and in assay [3] (setting [4]) were 733 nM and 1120 nM, respectively.

For the compound `CCS(=O)(=O)Nc1ccc(Oc2ccc(F)cc2F)c(-c2cn(C)c(=O)cc2OC2COC2)c1` [Example 316, N-{4-(2,4-difluorophenoxy)-3-[1-methyl-4-(oxetan-3-yloxy)-6-oxo-1,6-dihydropyridin-3-yl]phenyl}ethanesulfonamide], the EC50 in assay [1] (72 h incubation) was determined as 24.7 nM. Also, the Ki in assay [2] (setting [4]) is 0.809 nM; in assay [3] (setting [4]), 3.9 nM.

For `Cn1cc(-c2ccccc2Oc2ccccc2)ccc1=O` [Example 223, 1-methyl-5-(2-phenoxyphenyl)pyridin-2(1H)-one], the EC50 in assay [1] (72 h incubation) worked out at 4810 nM. The figures for the Ki in assay [2] (setting [4]) and in assay [3] (setting [4]) were 872 nM and 635 nM, respectively.

`CCS(=O)(=O)Nc1ccc(Oc2ccc(F)cc2F)c(-c2cn(C)c(=O)cc2NCC2CC2)c1` [Example 353, N-[3-{4-[(cyclopropylmethyl)amino]-1-methyl-6-oxo-1,6-dihydropyridin-3-yl}-4-(2,4-difluorophenoxy)phenyl]ethanesulfonamide]: the EC50 in assay [1] (72 h incubation) came out at 56.9 nM. For the same compound, the values for the Ki in assay [2] (setting [4]) and in assay [3] (setting [4]) were 2.3 nM and 4.41 nM, respectively.

Turning to `CCS(=O)(=O)Nc1ccc(Oc2ccc(F)cc2F)c(-c2cc(F)c(=O)n(C)c2)c1` [Example 352, N-[4-(2,4-difluorophenoxy)-3-(5-fluoro-1-methyl-6-oxo-1,6-dihydropyridin-3-yl)phenyl]ethanesulfonamide], in assay [1] (72 h incubation), the EC50 was found to be 256 nM. Also, the inhibition constant Ki is 77.9 nM in assay [2] (setting [4]) and 26.8 nM in assay [3] (setting [4]).

With `Cn1nc(-c2ccccc2Oc2ccccc2)c(-c2ccc(CCCO)cc2)cc1=O` [Example 101, 5-[4-(3-hydroxypropyl)phenyl]-2-methyl-6-(2-phenoxyphenyl)pyridazin-3(2H)-one], the EC50 in assay [1] (72 h incubation) was 1130 nM. The Ki in assay [2] (setting [4]) is 147 nM; in assay [3] (setting [4]), 233 nM.

As for `Cn1cc(-c2cc(NS(C)(=O)=O)ccc2Oc2ccccc2F)ccc1=O` [Example 239, N-[4-(2-fluorophenoxy)-3-(1-methyl-6-oxo-1,6-dihydropyridin-3-yl)phenyl]methanesulfonamide], the EC50 in assay [1] (72 h incubation) is 138 nM. The Ki in assay [2] (setting [4]) is 39.8 nM; in assay [3] (setting [4]), 32.6 nM.
